Experimental data as given in PubChem BioAssay AID1963986 (Molecular Pharmacology Branch, DTP, NCI, 2024).

System: 171881-019-R-J1-PDC tumor spheroid viability
Test: Anticancer human tumor 171881-019-R-J1-PDC patient-derived invasive breast carcinoma cell line growth inhibition [PI3K]
Settings: spheroids with HUVEC and MSC; for IC50: curve of first compound; for viability, T/C: stronger effect = lower value
Text: Combinatorial screen of targeted agents with the PI3K inhibitors inavolisib, alpelisib, duvelisib, and copanlisib in multi-cell type tumor spheroids
A high-throughput screen of multi-cell type tumor spheroids was designed to identify active combinations of targeted small molecules and PI3K pathway inhibitors. Complex spheroids include a stromal component modeled by human endothelial cells (HUVEC) and fibroblasts modeled by human mesenchymal stem cells (MSCs). The concentration ranges selected for each drug and investigational agent were based upon clinically achievable concentrations if the clinical Cmax of the agent was known.
Compounds. The drugs and investigational agents: inavolisib (NSC800729), alpelisib (NSC765974), duvelisib (NSC772469), copanlisib (NSC816437), ipatasertib (NSC767898), afuresertib (NSC778305), talazoparib (NSC767125), sapanisertib (NSC764658), selumetinib (NSC741078), tovorafenib (DAY101, NSC766906), vemurafenib (NSC761431), ravoxertinib (NSC781343), sotorasib (NSC818433), MRTX1133 (NSC 836407), abemaciclib (NSC 768073), palbociclib (NSC758247), venetoclax (NSC 766270), SY5609 (NSC837396), enzalutamide (NSC755605), and darolutamide (NSC825331), were obtained from the National Cancer Institute (NCI) Developmental Therapeutics Program Chemical Repository. The FDA-approved anticancer drug set is available from the NCI Developmental Therapeutics Program. […] The stock solutions were prepared in dimethyl sulfoxide (DMSO, Sigma-Aldrich, St. Louis, MO, cat. D2650) at 800-fold the tested concentration and stored at -70 degrees C prior to their use. All drugs and investigational agents were tested over a range starting from a high concentration at or near the clinical Cmax and decreasing in half-log increments. If the clinical Cmax for an agent had not been determined, the highest concentration tested was 10 microM.
Cell Culture. All cells were maintained in an incubator at 37 degrees C and 5% CO2 with 95% humidity. The PDC lines were cultured according to standard operating procedures established by the NCI PDMR (https://pdmr.cancer.gov/sops/default.htm). All PDCs were thawed and cultured in Matrigel-coated flasks prepared with a working solution of 1X Ham's F-12 nutrient mix, without supplementation (Invitrogen, Waltham, MA, cat. 11765054), 100 U/mL penicillin-streptomycin (Invitrogen, cat. 15140122), and 2.5% Matrigel (Corning Inc., Corning, NY, cat. 354248) for the first three passages. The 354836-022-R-J1-PDC, 475296-252-R-J1-PDC, and 997726-040-R-J2-PDC lines were cultured in 6A media, which includes advanced DMEM/F-12 (Thermo Fisher Scientific, cat. 12634028), 10 mM HEPES (Thermo Fisher Scientific, cat. 15630080), 1X GlutaMAX supplement (Thermo Fisher Scientific, cat. 35050061), 0.1 mg/mL primocin (InvivoGen, San Diego, CA, cat. ant-pm-2), 10% defined fetal bovine serum, heat inactivated (HyClone Laboratories Inc., Logan, UT, cat. SH30070.03HI), 50% L-WRN conditioned media (ATCC, cat. CRL-3276), 1.25 mM N-Acetyl-L-cysteine (Sigma-Aldrich, cat. A9165), 10 mM nicotinamide (Sigma-Aldrich, cat. N0636), 1X B-27 supplement (Thermo Fisher Scientific, cat. 17504044), 1X N-2 supplement (Thermo Fisher Scientific, cat. 17502048), and 10 microM Y-27632 dihydrochloride (Tocris Bioscience, Bristol, United Kingdom, cat. 1254). The 624824-186-R-J2-PDC line was cultured in 6C/Colon 1B media, which includes all 6A media components plus 50 ng/mL human EGF recombinant protein (Thermo Fisher Scientific, cat. PHG0311). […]
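Further: spheroids exposed to compound for 7 days before viability read.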
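Wherever viability, T/C is given: 100% = DMSO vehicle-treated spheroids.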

How did the IC50 (second compound 0.0316 µM) turn out when `CC(=O)c1c(C)c2cnc(Nc3ccc(N4CCNCC4)cn3)nc2n(C2CCCC2)c1=O` + Cc1nc(NC(=O)N2CCCC2C(N)=O)sc1-c1ccnc(C(C)(C)C(F)(F)F)c1 was run?
The IC50 was > 100 nM.

And the IC50 (second compound 0.1 µM)?
Its IC50 is > 100 nM.

What about the IC50 (second compound 0.316 µM) of the same compound?
Its IC50 is > 100 nM.

What about the IC50 (second compound 1 µM) of the same compound?
Its IC50 is < 0.316 nM.

What about the IC50 (second compound 3.16 µM) of the same compound?
The IC50 was < 0.316 nM.

What about the IC50 (second compound 10 µM) of the same compound?
Its IC50 is < 0.316 nM.

And the viability, T/C (second compound 0.0316 µM, first compound 0.000316 µM)?
Its viability, T/C is 106%.

And the viability, T/C (second compound 0.0316 µM, first compound 0.001 µM)?
Its viability, T/C is 96.3%.

What about the viability, T/C (second compound 0.0316 µM, first compound 0.00316 µM) of the same compound?
The viability, T/C was 91.2%.

What about the viability, T/C (second compound 0.0316 µM, first compound 0.01 µM) of the same compound?
The viability, T/C was 101%.

And the viability, T/C (second compound 0.0316 µM, first compound 0.0316 µM)?
The viability, T/C was 105%.

And the viability, T/C (second compound 0.0316 µM, first compound 0.1 µM)?
The viability, T/C was 88.6%.

And the viability, T/C (second compound 0.1 µM, first compound 0.000316 µM)?
Its viability, T/C is 78.9%.

And the viability, T/C (second compound 0.1 µM, first compound 0.001 µM)?
The viability, T/C was 79%.

And the viability, T/C (second compound 0.1 µM, first compound 0.00316 µM)?
Its viability, T/C is 84.8%.

What about the viability, T/C (second compound 0.1 µM, first compound 0.01 µM) of the same compound?
The viability, T/C was 88.9%.

And the viability, T/C (second compound 0.1 µM, first compound 0.0316 µM)?
Its viability, T/C is 88.3%.

What about the viability, T/C (second compound 0.1 µM, first compound 0.1 µM) of the same compound?
Its viability, T/C is 82.6%.

What about the viability, T/C (second compound 0.316 µM, first compound 0.000316 µM) of the same compound?
Its viability, T/C is 57.9%.

What about the viability, T/C (second compound 0.316 µM, first compound 0.001 µM) of the same compound?
Its viability, T/C is 61.5%.

And the viability, T/C (second compound 0.316 µM, first compound 0.00316 µM)?
Its viability, T/C is 54.3%.

What about the viability, T/C (second compound 0.316 µM, first compound 0.01 µM) of the same compound?
The viability, T/C was 63.2%.

And the viability, T/C (second compound 0.316 µM, first compound 0.0316 µM)?
The viability, T/C was 63.1%.

And the viability, T/C (second compound 0.316 µM, first compound 0.1 µM)?
Its viability, T/C is 63.2%.

What about the viability, T/C (second compound 1 µM, first compound 0.000316 µM) of the same compound?
Its viability, T/C is 33%.

What about the viability, T/C (second compound 1 µM, first compound 0.001 µM) of the same compound?
Its viability, T/C is 33.7%.

And the viability, T/C (second compound 1 µM, first compound 0.00316 µM)?
Its viability, T/C is 37.3%.

What about the viability, T/C (second compound 1 µM, first compound 0.01 µM) of the same compound?
The viability, T/C was 37.6%.

And the viability, T/C (second compound 1 µM, first compound 0.0316 µM)?
The viability, T/C was 43.8%.

What about the viability, T/C (second compound 1 µM, first compound 0.1 µM) of the same compound?
The viability, T/C was 38.8%.

And the viability, T/C (second compound 3.16 µM, first compound 0.000316 µM)?
Its viability, T/C is 14.1%.

What about the viability, T/C (second compound 3.16 µM, first compound 0.001 µM) of the same compound?
Its viability, T/C is 14.3%.

What about the viability, T/C (second compound 3.16 µM, first compound 0.00316 µM) of the same compound?
The viability, T/C was 16.5%.

And the viability, T/C (second compound 3.16 µM, first compound 0.01 µM)?
The viability, T/C was 17.3%.

And the viability, T/C (second compound 3.16 µM, first compound 0.0316 µM)?
The viability, T/C was 18%.

What about the viability, T/C (second compound 3.16 µM, first compound 0.1 µM) of the same compound?
The viability, T/C was 18.4%.

What about the viability, T/C (second compound 10 µM, first compound 0.000316 µM) of the same compound?
Its viability, T/C is 4.32%.

What about the viability, T/C (second compound 10 µM, first compound 0.001 µM) of the same compound?
The viability, T/C was 3.84%.

What about the viability, T/C (second compound 10 µM, first compound 0.00316 µM) of the same compound?
The viability, T/C was 4.16%.

What about the viability, T/C (second compound 10 µM, first compound 0.01 µM) of the same compound?
The viability, T/C was 4.4%.

What about the viability, T/C (second compound 10 µM, first compound 0.0316 µM) of the same compound?
The viability, T/C was 5.31%.

What about the viability, T/C (second compound 10 µM, first compound 0.1 µM) of the same compound?
Its viability, T/C is 4.87%.
